This is an account of results in ChEMBL document CHEMBL3352562, “(±)-Quassidines I and J, two pairs of cytotoxic bis-β-carboline alkaloid enantiomers from Picrasma quassioides” (J Nat Prod, 2015).

The IC50 is the concentration that inhibits the measured activity by half.

Common to all, as to assay type: functional, cell-based
One test deals with HeLa. Nature of the test: Cytotoxicity against human HeLa cells assessed as cell survival after 48 hrs by MTT assay.
A short description of test [1]: Cytotoxicity against human MKN28 cells assessed as cell survival after 48 hrs by MTT assay. As to conditions: MKN-28, 48 h. In general terms: Formazan colour is commonly taken as a measure of viable cells.
The subject of another test is B16. As to the kind of experiment: Cytotoxicity against mouse B16 cells assessed as cell survival after 48 hrs by MTT assay. Particulars: B16, 48 h.

With `COc1cccc2c1[nH]c1c3[n+](cc(OC)c12)[C@H](c1ncc(OC)c2c1[nH]c1ccccc12)CCC3`, the figures for the IC50 (in the test on HeLa; in test [1]; with B16) were 5.75 µM, 6.3 µM and 10.8 µM, respectively.

For the molecule `COc1cccc2c1[nH]c1c3[n+](cc(OC)c12)[C@@H](c1ncc(OC)c2c1[nH]c1ccccc12)CCC3`, the 50% inhibitory concentration (IC50) in the test with HeLa is 10.5 µM; in test [1], 12.3 µM; with B16, 15.4 µM.

As for `COc1cccc2c1[nH]c1c([C@@H]3CCCc4c5[nH]c6c(O)cccc6c5c(OC)c[n+]43)ncc(OC)c12`, the IC50 with HeLa turned out to be 4.03 µM; in test [1], 4.91 µM; with B16 it was 9.34 µM.

Take `COc1cccc2c1[nH]c1c([C@H]3CCCc4c5[nH]c6c(O)cccc6c5c(OC)c[n+]43)ncc(OC)c12`: the figures for the IC50 (in the test with HeLa; in test [1]; in the test with B16) were 10.9 µM, 9.64 µM and 14.8 µM, respectively.

Regarding `O=c1[nH]cc(F)c(=O)[nH]1` [FLUOROURACIL], the concentration for half-maximal inhibition (IC50) with HeLa was 13.5 µM; in test [1], 9.67 µM; in the test on B16, 7.64 µM.
